Reference: ChEMBL document CHEMBL5724806, “Unraveling interindividual differences and functional consequences of gut microbial metabolism of immunosuppressants” (2024)

Columns and labels:
Assay type in all cases: ADME
[1] = The drug is tested on Alloscardovia omnicolens strain: DSM21503 for biotransformation under anaerobic condition. The drug concentrations were measured over 6 timepoints collected between 0 and 12 hours of incubation by liquid-chromatography-coupled mass spectrometry (LC–MS); set-up: dose 5 uM, timepoint 0, 1.5, 3, 6, 9, 12 hours; settings: 5 µM
[2] = The drug is tested on Bacteroides thetaiotaomicron strain: DSM2079 for biotransformation under anaerobic condition. The drug concentrations were measured over 6 timepoints collected between 0 and 12 hours of incubation by liquid-chromatography-coupled mass spectrometry (LC–MS); set-up: dose 5 uM, timepoint 0, 1.5, 3, 6, 9, 12 hours; settings: 5 µM
[3] = The drug is tested on Bacteroides xylanisolvens strain: HM 722 for biotransformation under anaerobic condition. The drug concentrations were measured over 6 timepoints collected between 0 and 12 hours of incubation by liquid-chromatography-coupled mass spectrometry (LC–MS); set-up: dose 5 uM, timepoint 0, 1.5, 3, 6, 9, 12 hours; settings: 5 µM
[4] = The drug is tested on Blautia hansenii strain: DSM20583 for biotransformation under anaerobic condition. The drug concentrations were measured over 6 timepoints collected between 0 and 12 hours of incubation by liquid-chromatography-coupled mass spectrometry (LC–MS); set-up: dose 5 uM, timepoint 0, 1.5, 3, 6, 9, 12 hours; settings: 5 µM
[5] = The drug is tested on Clostridium scindens strain: DSM5676 for biotransformation under anaerobic condition. The drug concentrations were measured over 6 timepoints collected between 0 and 12 hours of incubation by liquid-chromatography-coupled mass spectrometry (LC–MS); set-up: dose 5 uM, timepoint 0, 1.5, 3, 6, 9, 12 hours; settings: 5 µM
[6] = The drug is tested on Eubacterium eligens strain: DSM3376 for biotransformation under anaerobic condition. The drug concentrations were measured over 6 timepoints collected between 0 and 12 hours of incubation by liquid-chromatography-coupled mass spectrometry (LC–MS); set-up: dose 5 uM, timepoint 0, 1.5, 3, 6, 9, 12 hours; settings: lachnospira eligens, 5 µM
[7] = The drug is tested on Eubacterium hallii strain: DSM3353 for biotransformation under anaerobic condition. The drug concentrations were measured over 6 timepoints collected between 0 and 12 hours of incubation by liquid-chromatography-coupled mass spectrometry (LC–MS); set-up: dose 5 uM, timepoint 0, 1.5, 3, 6, 9, 12 hours; settings: anaerobutyricum hallii, 5 µM
[8] = The drug is tested on Faecalibacterium prausnitzii strain: DSM17677 for biotransformation under anaerobic condition. The drug concentrations were measured over 6 timepoints collected between 0 and 12 hours of incubation by liquid-chromatography-coupled mass spectrometry (LC–MS); set-up: dose 5 uM, timepoint 0, 1.5, 3, 6, 9, 12 hours; settings: faecalibacterium duncaniae, 5 µM
[9] = The drug is tested on Lactobacillus gasseri strain: DSM20243 for biotransformation under anaerobic condition. The drug concentrations were measured over 6 timepoints collected between 0 and 12 hours of incubation by liquid-chromatography-coupled mass spectrometry (LC–MS); set-up: dose 5 uM, timepoint 0, 1.5, 3, 6, 9, 12 hours; settings: 5 µM
[10] = The drug is tested on Roseburia intestinalis strain: DSM14610 for biotransformation under anaerobic condition. The drug concentrations were measured over 6 timepoints collected between 0 and 12 hours of incubation by liquid-chromatography-coupled mass spectrometry (LC–MS); set-up: dose 5 uM, timepoint 0, 1.5, 3, 6, 9, 12 hours; settings: 5 µM
[11] = The drug is tested on Streptococcus mitis strain: DSM12643 for biotransformation under anaerobic condition. The drug concentrations were measured over 6 timepoints collected between 0 and 12 hours of incubation by liquid-chromatography-coupled mass spectrometry (LC–MS); set-up: dose 5 uM, timepoint 0, 1.5, 3, 6, 9, 12 hours; settings: 5 µM
[12] = The drug is tested on Enterococcus faecalis strain: ATCC29212 for biotransformation under anaerobic condition. The drug concentrations were measured over 6 timepoints collected between 0 and 12 hours of incubation by liquid-chromatography-coupled mass spectrometry (LC–MS); set-up: dose 5 uM, timepoint 0, 1.5, 3, 6, 9, 12 hours; settings: 5 µM
[13] = The drug is tested on Akkermansia muciniphila strain: DSM22959 for biotransformation under anaerobic condition. The drug concentrations were measured over 6 timepoints collected between 0 and 12 hours of incubation by liquid-chromatography-coupled mass spectrometry (LC–MS); set-up: dose 5 uM, timepoint 0, 1.5, 3, 6, 9, 12 hours; settings: 5 µM
[14] = The drug is tested on Actinomyces naeslundi strain: DSM43013 for biotransformation under microaerobic condition. The drug concentrations were measured over 6 timepoints collected between 0 and 12 hours of incubation by liquid-chromatography-coupled mass spectrometry (LC–MS); set-up: dose 5 uM, timepoint 0, 1.5, 3, 6, 9, 12 hours; settings: actinomyces naeslundii, 5 µM
[15] = The drug is tested on Capnocytophaga ochracea strain: DSM7271 for biotransformation under microaerobic condition. The drug concentrations were measured over 6 timepoints collected between 0 and 12 hours of incubation by liquid-chromatography-coupled mass spectrometry (LC–MS); set-up: dose 5 uM, timepoint 0, 1.5, 3, 6, 9, 12 hours; settings: 5 µM
[16] = The drug is tested on Lactobacillus reuteri strain: DSM20016 for biotransformation under microaerobic condition. The drug concentrations were measured over 6 timepoints collected between 0 and 12 hours of incubation by liquid-chromatography-coupled mass spectrometry (LC–MS); set-up: dose 5 uM, timepoint 0, 1.5, 3, 6, 9, 12 hours; settings: limosilactobacillus reuteri, 5 µM
[17] = The drug is tested on Lactobacillus ruminis strain: ATCC25644 for biotransformation under microaerobic condition. The drug concentrations were measured over 6 timepoints collected between 0 and 12 hours of incubation by liquid-chromatography-coupled mass spectrometry (LC–MS); set-up: dose 5 uM, timepoint 0, 1.5, 3, 6, 9, 12 hours; settings: ligilactobacillus ruminis, 5 µM
[18] = The drug is tested on Streptococcus anginosus strain: DSM20563 for biotransformation under microaerobic condition. The drug concentrations were measured over 6 timepoints collected between 0 and 12 hours of incubation by liquid-chromatography-coupled mass spectrometry (LC–MS); set-up: dose 5 uM, timepoint 0, 1.5, 3, 6, 9, 12 hours; settings: 5 µM
[19] = The drug is tested on the gut metagenome community of A-06 with ENA study accession number: PRJEB31790 for biotransformation under anaerobic condition. The drug concentrations were measured over 7 timepoints collected between 0 and 12 hours of incubation by liquid-chromatography-coupled mass spectrometry (LC–MS); set-up: dose 5 uM, timepoint 0, 0.75, 1.5, 3, 6, 9, 12 hours; settings: 5 µM
[20] = The drug is tested on the gut metagenome community of P-02 with ENA study accession number: PRJEB31790 for biotransformation under anaerobic condition. The drug concentrations were measured over 7 timepoints collected between 0 and 12 hours of incubation by liquid-chromatography-coupled mass spectrometry (LC–MS); set-up: dose 5 uM, timepoint 0, 0.75, 1.5, 3, 6, 9, 12 hours; settings: 5 µM
[21] = The drug is tested on the gut metagenome community of P-04 with ENA study accession number: PRJEB31790 for biotransformation under anaerobic condition. The drug concentrations were measured over 7 timepoints collected between 0 and 12 hours of incubation by liquid-chromatography-coupled mass spectrometry (LC–MS); set-up: dose 5 uM, timepoint 0, 0.75, 1.5, 3, 6, 9, 12 hours; settings: 5 µM
[22] = The drug is tested on the gut metagenome community of T-02 with ENA study accession number: PRJEB31790 for biotransformation under anaerobic condition. The drug concentrations were measured over 7 timepoints collected between 0 and 12 hours of incubation by liquid-chromatography-coupled mass spectrometry (LC–MS); set-up: dose 5 uM, timepoint 0, 0.75, 1.5, 3, 6, 9, 12 hours; settings: 5 µM
[23] = The drug is tested on the gut metagenome community of A-06 with ENA study accession number: PRJEB31790 for biotransformation under microaerobic condition. The drug concentrations were measured over 7 timepoints collected between 0 and 12 hours of incubation by liquid-chromatography-coupled mass spectrometry (LC–MS); set-up: dose 5 uM, timepoint 0, 0.75, 1.5, 3, 6, 9, 12 hours; settings: 5 µM
[24] = The drug is tested on the gut metagenome community of P-02 with ENA study accession number: PRJEB31790 for biotransformation under microaerobic condition. The drug concentrations were measured over 7 timepoints collected between 0 and 12 hours of incubation by liquid-chromatography-coupled mass spectrometry (LC–MS); set-up: dose 5 uM, timepoint 0, 0.75, 1.5, 3, 6, 9, 12 hours; settings: 5 µM
[25] = The drug is tested on the gut metagenome community of T-03 with ENA study accession number: PRJEB31790 for biotransformation under microaerobic condition. The drug concentrations were measured over 7 timepoints collected between 0 and 12 hours of incubation by liquid-chromatography-coupled mass spectrometry (LC–MS); set-up: dose 5 uM, timepoint 0, 0.75, 1.5, 3, 6, 9, 12 hours; settings: 5 µM
[26] = The drug is tested on the gut metagenome community of T-05 with ENA study accession number: PRJEB31790 for biotransformation under microaerobic condition. The drug concentrations were measured over 7 timepoints collected between 0 and 12 hours of incubation by liquid-chromatography-coupled mass spectrometry (LC–MS); set-up: dose 5 uM, timepoint 0, 0.75, 1.5, 3, 6, 9, 12 hours; settings: 5 µM

| SMILES | Bacterial Biotransformation [1] | Bacterial Biotransformation [2] | Bacterial Biotransformation [3] | Bacterial Biotransformation [4] | Bacterial Biotransformation [5] | Bacterial Biotransformation [6] | Bacterial Biotransformation [7] | Bacterial Biotransformation [8] | Bacterial Biotransformation [9] | Bacterial Biotransformation [10] | Bacterial Biotransformation [11] | Bacterial Biotransformation [12] | Bacterial Biotransformation [13] | Bacterial Biotransformation [14] | Bacterial Biotransformation [15] | Bacterial Biotransformation [16] | Bacterial Biotransformation [17] | Bacterial Biotransformation [18] | Bacterial Biotransformation [19] | Bacterial Biotransformation [20] | further results |
| --- | --- | --- | --- | --- | --- | --- | --- | --- | --- | --- | --- | --- | --- | --- | --- | --- | --- | --- | --- | --- | --- |
| COc1c(C)c2c(c(O)c1C/C=C(\C)CCC(=O)OCCN1CCOCC1)C(=O)OC2 [MYCOPHENOLATE MOFETIL] | Compound metabolized | Compound NOT metabolized | Compound metabolized | Compound NOT metabolized | Compound NOT metabolized | Compound metabolized | Compound NOT metabolized | Compound metabolized | Compound metabolized | Compound NOT metabolized | Compound metabolized | Compound metabolized | Compound NOT metabolized | Compound NOT metabolized | Compound metabolized | Compound NOT metabolized | Compound metabolized | Compound metabolized | Compound metabolized | Compound metabolized | Bacterial Biotransformation [21]: Compound metabolized; Bacterial Biotransformation [22]: Compound metabolized; Bacterial Biotransformation [23]: Compound metabolized; Bacterial Biotransformation [24]: Compound metabolized; Bacterial Biotransformation [25]: Compound metabolized; Bacterial Biotransformation [26]: Compound metabolized |
| COc1c(C)c2c(c(O)c1C/C=C(\C)CCC(=O)O)C(=O)OC2 [MYCOPHENOLIC ACID] | Compound NOT metabolized | Compound NOT metabolized | Compound NOT metabolized | Compound NOT metabolized | Compound NOT metabolized | Compound NOT metabolized | Compound NOT metabolized | Compound NOT metabolized | Compound NOT metabolized | Compound NOT metabolized | Compound NOT metabolized | Compound NOT metabolized | Compound NOT metabolized | Compound NOT metabolized | Compound NOT metabolized | Compound NOT metabolized | Compound NOT metabolized | Compound NOT metabolized | Compound NOT metabolized | Compound NOT metabolized | Bacterial Biotransformation [21]: Compound NOT metabolized; Bacterial Biotransformation [22]: Compound NOT metabolized; Bacterial Biotransformation [23]: Compound NOT metabolized; Bacterial Biotransformation [24]: Compound NOT metabolized; Bacterial Biotransformation [25]: Compound NOT metabolized; Bacterial Biotransformation [26]: Compound metabolized |
